# How the values were obtained:
# bedstraw = test: Test B pre/postemergence bedstraw; format: in vivo, Galium aparine
# Method in brief: (§1)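 Herbicidal effect was estimated by eye on a ten-point control scale after plants spent twelve to sixteen days in a greenhouse following soil or foliar treatment. Foliar sprays targeted plants at one to four leaves; all doses were formulated in a non-phytotoxic solvent with surfactant.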
# blackgrass = test: Test B pre/postemergence blackgrass; format: in vivo, Alopecurus myosuroides
# Method in brief: as §1
# surinam grass = test: Test B pre/postemergence surinam grass; format: in vivo, Brachiaria decumbens
# Method in brief: as §1
# cocklebur = test: Test B pre/postemergence cocklebur; format: in vivo, Xanthium strumarium
# Method in brief: as §1
# crabgrass = test: Test B pre/postemergence crabgrass; format: in vivo, Digitaria sanguinalis
# Method in brief: as §1
# giant foxtail = test: Test B pre/postemergence giant foxtail; format: in vivo, Setaria faberii
# Method in brief: as §1
# morningglory = test: Test B pre/postemergence morningglory; format: in vivo, Ipomoea hederacea
# Method in brief: as §1
# pigweed = test: Test B pre/postemergence pigweed; format: in vivo, Amaranthus retroflexus
# Method in brief: as §1
# sugar beet = test: Test B pre/postemergence sugar beet; format: in vivo, Beta vulgaris
# Method in brief: as §1
# velvetleaf = test: Test B pre/postemergence velvetleaf; format: in vivo, Abutilon theophrasti
# Method in brief: as §1
# wheat = test: Test B pre/postemergence wheat; format: in vivo, Triticum aestivum
# Method in brief: as §1
# wild oat = test: Test B pre/postemergence wild oat; format: in vivo, Avena fatua
# Method in brief: as §1
# purple nutsedge = test: Test B pre/postemergence purple nutsedge; format: in vivo, Cyperus rotundus
# Method in brief: as §1
# rice = test: Test B flood test rice; format: in vivo, Oryza sativa
# Method in brief: (§2)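 Plants were grown to the 2-leaf stage before treatment with test chemical, then held in a greenhouse for twelve to sixteen days. Injury was visually rated against untreated controls on a 0–10 scale, where 0 is no effect and 10 is complete control.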
# duck salad = test: Test B flood test duck salad; format: in vivo, Heteranthera limosa
# Method in brief: as §2
# bamyardgrass = test: Test B flood test barnyardgrass; format: in vivo, Echinochloa crus-galli
# Method in brief: as §2
# [1] = Postemergence, Rate 62 g/ha, scale 0 to 10, 0 is no effect, 10 is complete control
# [2] = Postemergence, Rate 250 g/ha, scale 0 to 10, 0 no effect, 10 complete control
# [3] = Preemergence, Rate 31 g/ha, visual rating, scale 0 to 10 (0 no effect, 10 complete control)
# [4] = Preemergence, Rate 62 g/ha, scale 0 to 10, 0 is no effect, 10 is complete control
# [5] = Preemergence, Rate 125 g/ha, scale 0 to 10 (0 no effect, 10 complete control)
# [6] = Preemergence, Rate 250 g/ha, scale of 0 to 10 where 0 is no effect and 10 is complete control
# [7] = Rate 31 g/ha, Postemergence, scale 0 to 10
# [8] = Rate 125 g/ha, Postemergence, scale 0 to 10, 0 no effect, 10 complete control
# [9] = Rate 31 g/ha, Postemergence section (flood test species), scale 0 to 10
# [10] = Rate 125 g/ha, Postemergence section (flood test species), scale 0 to 10, 0 no effect, 10 complete control
# [11] = flood test, listed under Postemergence, Rate 250 g/ha, scale 0 to 10, 0 no effect, 10 complete control
compound,measurement,setting,value
CCN(C(=O)n1oc(=O)n(-c2ccc(F)cc2F)c1=O)C1CCCCC1 [Compound 23],Bedstraw plant response rating,bedstraw; [1],0
same,Bedstraw plant response rating,bedstraw; [2],0
same,Bedstraw plant response rating,bedstraw; [3],0
same,"Plant response rating, Bedstraw",bedstraw; [4],0
same,"Plant response rating, Bedstraw",bedstraw; [5],0
same,"Plant response rating, Bedstraw",bedstraw; [6],0
same,Bedstraw plant response rating,bedstraw; [7],0
same,Bedstraw plant response rating,bedstraw; [8],0
same,Blackgrass plant response rating,blackgrass; [1],0
same,Blackgrass plant response rating,blackgrass; [2],0
same,Blackgrass plant response rating,blackgrass; [3],0
same,"Plant response rating, Blackgrass",blackgrass; [4],0
same,"Plant response rating, Blackgrass",blackgrass; [5],1
same,"Plant response rating, Blackgrass",blackgrass; [6],2
same,Blackgrass plant response rating,blackgrass; [7],0
same,Blackgrass plant response rating,blackgrass; [8],0
same,B. signalgrass plant response rating,surinam grass; [1],0
same,B. signalgrass plant response rating,surinam grass; [2],0
same,B. signalgrass plant response rating,surinam grass; [3],0
same,"Plant response rating, B. signalgrass",surinam grass; [4],0
same,"Plant response rating, B. signalgrass",surinam grass; [5],0
same,"Plant response rating, B. signalgrass",surinam grass; [6],0
same,B. signalgrass plant response rating,surinam grass; [7],0
same,B. signalgrass plant response rating,surinam grass; [8],0
same,Cocklebur plant response rating,cocklebur; [1],0
same,Cocklebur plant response rating,cocklebur; [2],0
same,Cocklebur plant response rating,cocklebur; [3],0
same,"Plant response rating, Cocklebur",cocklebur; [4],0
same,"Plant response rating, Cocklebur",cocklebur; [5],0
same,Cocklebur plant response rating,cocklebur; [7],0
same,Cocklebur plant response rating,cocklebur; [8],0
same,Crabgrass plant response rating,crabgrass; [1],0
same,Crabgrass plant response rating,crabgrass; [2],6
same,Crabgrass plant response rating,crabgrass; [3],0
same,"Plant response rating, Crabgrass",crabgrass; [4],3
same,"Plant response rating, Crabgrass",crabgrass; [5],3
same,"Plant response rating, Crabgrass",crabgrass; [6],3
same,Crabgrass plant response rating,crabgrass; [7],0
same,Crabgrass plant response rating,crabgrass; [8],1
same,Giant foxtail plant response rating,giant foxtail; [1],0
same,Giant foxtail plant response rating,giant foxtail; [2],2
same,Giant foxtail plant response rating,giant foxtail; [3],1
same,"Plant response rating, Giant foxtail",giant foxtail; [4],2
same,"Plant response rating, Giant foxtail",giant foxtail; [5],2
same,"Plant response rating, Giant foxtail",giant foxtail; [6],3
same,Giant foxtail plant response rating,giant foxtail; [7],0
same,Giant foxtail plant response rating,giant foxtail; [8],2
same,Morningglory plant response rating,morningglory; [1],1
same,Morningglory plant response rating,morningglory; [2],10
same,Morningglory plant response rating,morningglory; [3],0
same,"Plant response rating, Morningglory",morningglory; [4],0
same,"Plant response rating, Morningglory",morningglory; [5],0
same,"Plant response rating, Morningglory",morningglory; [6],0
same,Morningglory plant response rating,morningglory; [7],0
same,Morningglory plant response rating,morningglory; [8],8
same,Redroot pigweed plant response rating,pigweed; [1],0
same,Redroot pigweed plant response rating,pigweed; [2],0
same,Redroot pigweed plant response rating,pigweed; [3],0
same,"Plant response rating, Redroot pigweed",pigweed; [4],0
same,"Plant response rating, Redroot pigweed",pigweed; [5],0
same,"Plant response rating, Redroot pigweed",pigweed; [6],0
same,Redroot pigweed plant response rating,pigweed; [7],0
same,Redroot pigweed plant response rating,pigweed; [8],0
same,Sugarbeets plant response rating,sugar beet; [1],0
same,Sugarbeets plant response rating,sugar beet; [2],0
same,Sugarbeets plant response rating,sugar beet; [3],0
same,"Plant response rating, Sugarbeets",sugar beet; [4],0
same,"Plant response rating, Sugarbeets",sugar beet; [5],0
same,"Plant response rating, Sugarbeets",sugar beet; [6],0
same,Sugarbeets plant response rating,sugar beet; [8],0
same,Velvetleaf plant response rating,velvetleaf; [1],0
same,Velvetleaf plant response rating,velvetleaf; [2],0
same,Velvetleaf plant response rating,velvetleaf; [3],0
same,"Plant response rating, Velvetleaf",velvetleaf; [4],0
same,"Plant response rating, Velvetleaf",velvetleaf; [5],0
same,"Plant response rating, Velvetleaf",velvetleaf; [6],0
same,Velvetleaf plant response rating,velvetleaf; [8],0
same,Wheat plant response rating,wheat; [1],0
same,Wheat plant response rating,wheat; [2],0
same,Wheat plant response rating,wheat; [3],0
same,"Plant response rating, Wheat",wheat; [4],0
same,"Plant response rating, Wheat",wheat; [5],0
same,"Plant response rating, Wheat",wheat; [6],0
same,Wheat plant response rating,wheat; [8],0
same,Wild oats plant response rating,wild oat; [1],0
same,Wild oats plant response rating,wild oat; [2],0
same,Wild oats plant response rating,wild oat; [3],0
same,"Plant response rating, Wild oats",wild oat; [5],0
same,"Plant response rating, Wild oats",wild oat; [6],0
same,Wild oats plant response rating,wild oat; [8],0
same,Nutsedge plant response rating,purple nutsedge; [1],0
same,Nutsedge plant response rating,purple nutsedge; [2],0
same,Nutsedge plant response rating,purple nutsedge; [3],0
same,"Plant response rating, Nutsedge",purple nutsedge; [4],0
same,"Plant response rating, Nutsedge",purple nutsedge; [5],0
same,"Plant response rating, Nutsedge",purple nutsedge; [6],0
same,Nutsedge plant response rating,purple nutsedge; [7],0
same,Nutsedge plant response rating,purple nutsedge; [8],0
same,Rice plant response rating,rice; [1],0
same,Rice plant response rating,rice; [9],0
same,Rice plant response rating,rice; [10],0
same,Rice plant response rating,rice; [11],0
same,Ducksalad plant response rating,duck salad; [1],0
same,Ducksalad plant response rating,duck salad; [9],0
same,Ducksalad plant response rating,duck salad; [10],0
same,Ducksalad plant response rating,duck salad; [11],0
same,Barnyardgrass plant response rating,bamyardgrass; [1],0
same,Barnyardgrass plant response rating,bamyardgrass; [9],0
same,Barnyardgrass plant response rating,bamyardgrass; [10],0
same,Barnyardgrass plant response rating,bamyardgrass; [11],0

# Reference: patent US6737383B1, “Herbicidal oxadiazolidines” (priority 1999, dated 2004)
